From PMC6915745, “TRIB3 supports breast cancer stemness by suppressing FOXO1 degradation and enhancing SOX2 transcription” (Nature Communications, 2019)

What was measured:
[1] = system: TRIB3-silenced MDA-MB-231 cells; experiment: Immunoblot of AKT1/FOXO1/SOX2, TRIB3-silenced MDA-MB-231 cells with AKT1 inhibitor MK2206; type: cell-based; conditions: 24 hr
Procedure: Cycloheximide (CHX; Sigma Aldrich, R750107) was used as a protein synthesis inhibitor to assess the stability of the existing proteins. To assess protein stability, cells were treated with 20 μM CHX and the proteasome inhibitor MG132 (Sigma Aldrich, R750107) at 10 μM or the autophagy inhibitor BAF (Sigma Aldrich, B1793) at 200 nM for the indicated times. Protein expression was assessed via immunoblot analysis with cell lysates (20–60 μg) prepared in RIPA lysis buffer containing protease inhibitors (Roche) using anti-SOX2 (3529), anti-NANOG (4903), anti-OCT4 (2750), anti-KLF4 (4038), anti-c-Myc (13987), anti-FOXO1 (2880), anti-p-FOXO1 (9461), anti-AKT (4685), anti-p-AKT (4060), anti-β-ACTIN (4970), anti-Ubiquitin (3936), or anti-LaminA/C (4777) antibodies from CST; anti-TRIB3 antibody (ab75846) from Abcam; and anti-Trib3 antibody (PA5-15480) from Thermo Fisher Scientific[59]. All antibodies were used at 1:1000 dilution, with the exception of anti-β-Actin antibodies, which were used at 1:2000 dilution. The protein concentrations were determined by BCA Protein Assay Kits (Pierce). […]
indicated proteins were detected by immunoblotting. […]
MK2206 for 24 hr. Cell extracts were prepared and the levels of the indicated proteins were detected […]
levels of the indicated proteins were detected by immunoblotting. […]
glucose (HG) for 24 hr was detected by Western blotting. […]

[2] = system: TRIB3-silenced MCF7 cells; experiment: Immunoblot of AKT1/FOXO1/SOX2, TRIB3-silenced MCF7 cells with AKT1 inhibitor MK2206; type: cell-based, human; conditions: TRIB3-silenced MCF7 cells, 24 h
Text: Fig. 6 TRIB3 abrogates the AKT-FOXO1 interaction. a Supervised clustering of MCF7 cells transfected with CTRL-shRNA or TRIB3-shRNA using the log2-transformed values for genes in the FOXO1 upstream pathway, including AMPK, ERK, PI3K, p38, and JNK clustered genes expressed in all samples. Each column represents a separate case. Z-scores from IPA depicting the subnetwork gene expression differences between CTRL-shRNA and TRIB3-shRNA cases. The Z-score heat map depicts the five FOXO1 upstream subnetworks. Each row represents the data for the subnetwork indicated in the right margin. b, c TRIB3 inhibited the activity of AKT1 in BCCs. The indicated stable expression cell extracts were prepared and the levels of the indicated proteins were detected by immunoblotting. d, e The effects of the AKT1 agonist or antagonist for TRIB3-FOXO1-SOX2 axis in BCCs. The indicated cells were treated with the AKT1 agonist SC79 or the antagonist MK2206 for 24 h. […] HMLE cell extracts were IP with an anti-AKT1 Ab and blotted with an anti-TRIB3 or anti-FOXO1 Ab in the presence of the indicated concentration of the TRIB3-GST protein. Data are shown as the mean ± SEM; P > 0.05 was considered not significant (NS); *P < 0.05, **P < 0.01, and ***P < 0.001 compared with the vector or CTRL-shRNA group. Source data are provided as a Source Data file.
Cycloheximide (CHX; Sigma Aldrich, R750107) was used as a protein synthesis inhibitor to assess the stability of the existing proteins. To assess protein stability, cells were treated with 20 μM CHX and the proteasome inhibitor MG132 (Sigma Aldrich, R750107) at 10 μM or the autophagy inhibitor BAF (Sigma Aldrich, B1793) at 200 nM for the indicated times. Protein expression was assessed via immunoblot analysis with cell lysates (20–60 μg) prepared in RIPA lysis buffer containing protease inhibitors (Roche) using anti-SOX2 (3529), anti-NANOG (4903), anti-OCT4 (2750), anti-KLF4 (4038), anti-c-Myc (13987), anti-FOXO1 (2880), anti-p-FOXO1 (9461), anti-AKT (4685), anti-p-AKT (4060), anti-β-ACTIN (4970), anti-Ubiquitin (3936), or anti-LaminA/C (4777) antibodies from CST; anti-TRIB3 antibody (ab75846) from Abcam; and anti-Trib3 antibody (PA5-15480) from Thermo Fisher Scientific[59]. All antibodies were used at 1:1000 dilution, with the exception of anti-β-Actin antibodies, which were used at 1:2000 dilution. The protein concentrations were determined by BCA Protein Assay Kits (Pierce). Proteins were separated by SDS-polyacrylamide gel electrophoresis (PAGE) and transferred to polyvinylidene difluoride membrane.

TRIB3-GST protein = biological target: T1, TRIB3-GST protein (Homo sapiens, UniProt Q96RU7); experiment: SPR binding kinetics of peptides to TRIB3 (BIAcore T200); conditions: in words
T1 construct: purchased Sino, China
T1 sequence (Q96RU7 1-358): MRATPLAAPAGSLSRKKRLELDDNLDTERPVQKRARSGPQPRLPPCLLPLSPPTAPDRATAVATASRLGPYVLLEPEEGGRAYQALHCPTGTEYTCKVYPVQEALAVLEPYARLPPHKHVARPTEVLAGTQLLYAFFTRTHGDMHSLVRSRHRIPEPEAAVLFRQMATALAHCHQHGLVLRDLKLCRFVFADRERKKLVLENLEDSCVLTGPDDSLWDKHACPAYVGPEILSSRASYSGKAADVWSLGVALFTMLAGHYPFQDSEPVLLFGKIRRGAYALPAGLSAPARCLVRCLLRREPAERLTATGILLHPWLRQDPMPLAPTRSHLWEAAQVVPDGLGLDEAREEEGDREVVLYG
Procedure: Peptide Ae, alanine mutants of Ae (M1-M13), Pep2–con and Pep2–Ae were synthesized by Guoping Pharmaceutical, Co. (China). The Surface plasmon resonance binding kinetics between TRIB3 and the indicated peptides were analyzed by using a BIAcore T200 system (GE Healthcare)[14]. Briefly, TRIB3-GST protein (Sino, China) was immobilized onto four individual flow cells in a CM5 sensor chip (GE Healthcare) through a standard coupling protocol. To measure the binding kinetics, the indicated peptide (2.5~0.009 μM in 2-fold serial dilutions) and a buffer blank for baseline subtraction were sequentially injected, with a regeneration step (glycine, pH 2.5) inserted between each cycle. The equilibrium dissociation constant (KD) was calculated according to BIA-evaluation software.

FOXO1 = conditions: HEPG2 cells, after insulin activation of PI3K-AKT; 12-hr under sera deprivation; ref Matsuzaki et al. (2003, PNAS); cited from earlier work
[3] = biological target: AKT1, endogenous in human cells (human (endogenous in HMLE, MCF7, …, UniProt P31749 1-480)); experiment: cell-based or functional assay
AKT1-FOXO1 interaction = experiment: Co-IP of AKT1-FOXO1 interaction in HMLE cell extracts with TRIB3-GST protein; type: binding, human; conditions: IP anti-AKT1
Text: Fig. 6 TRIB3 abrogates the AKT-FOXO1 interaction. a Supervised clustering of MCF7 cells transfected with CTRL-shRNA or TRIB3-shRNA using the log2-transformed values for genes in the FOXO1 upstream pathway, including AMPK, ERK, PI3K, p38, and JNK clustered genes expressed in all samples. Each column represents a separate case. Z-scores from IPA depicting the subnetwork gene expression differences between CTRL-shRNA and TRIB3-shRNA cases. The Z-score heat map depicts the five FOXO1 upstream subnetworks. Each row represents the data for the subnetwork indicated in the right margin. b, c TRIB3 inhibited the activity of AKT1 in BCCs. The indicated stable expression cell extracts were prepared and the levels of the indicated proteins were detected by immunoblotting. d, e The effects of the AKT1 agonist or antagonist for TRIB3-FOXO1-SOX2 axis in BCCs. The indicated cells were treated with the AKT1 agonist SC79 or the antagonist MK2206 for 24 h. […]
Cell pellets were lysed with coimmunoprecipitation buffer (25 mM Tri-cl (pH 7.4), 150 mM NaCl, 0.5% NP-40, 2.5 mM MgCl, 0.5 mM EDTA, 5% Glycerol), incubated with IP antibodies overnight at 4 °C with shaking, and then incubated with Protein A/G Plus-Agarose (Santa Cruz Biotechnology) for 2 h at 4 °C[15]. Interaction complexes were separated from the beads by boiling for 10 min and then subjected to SDS-PAGE and detected with immunoblotting.

Chain of AKT1, endogenous in human cells (human (P31749 whole entry): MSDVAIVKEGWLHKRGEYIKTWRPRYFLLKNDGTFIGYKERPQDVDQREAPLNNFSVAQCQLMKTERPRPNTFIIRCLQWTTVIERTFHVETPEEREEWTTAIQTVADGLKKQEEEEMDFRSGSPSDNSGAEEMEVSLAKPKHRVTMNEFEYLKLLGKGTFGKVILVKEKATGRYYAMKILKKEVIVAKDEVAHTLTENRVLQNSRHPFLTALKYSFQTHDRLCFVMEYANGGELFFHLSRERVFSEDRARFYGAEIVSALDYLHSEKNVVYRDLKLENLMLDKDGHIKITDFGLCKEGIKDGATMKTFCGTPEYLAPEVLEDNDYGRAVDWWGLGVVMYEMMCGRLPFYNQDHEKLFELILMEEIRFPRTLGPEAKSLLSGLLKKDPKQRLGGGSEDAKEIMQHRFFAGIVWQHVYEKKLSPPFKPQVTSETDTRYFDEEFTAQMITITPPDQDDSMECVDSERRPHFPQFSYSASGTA

Molecule: NC1(c2ccc(-c3nc4ccn5c(=O)[nH]nc5c4cc3-c3ccccc3)cc2)CCC1 [MK2206, reference compound]
- FOXO1 and SOX2 expression [1]: rescued FOXO1 and SOX2 expression
- activity of AKT1 S473 and FOXO1 S256 [1]: suppressed the activity of AKT1^S473 and FOXO1^S256
- FOXO1 and SOX2 expression [2]: rescued FOXO1 and SOX2 expression
- activity of AKT1 S473 and FOXO1 S256 [2]: suppressed the activity of AKT1^S473 and FOXO1^S256

Molecule: AAHTAAENRV AAA [Pep2–con, reference compound]
- interaction with TRIB3 of control peptide (TRIB3-GST protein; authors' reply to reviewers): no interaction with TRIB3

Molecule: Ae: α-helical peptide which mimics the AKT1 191–204 α-helical region (EVAHTLTENRVLQN; UniProt P31749 191-204, looked up, fragment)
- binding affinity with TRIB3, rank among α-helical peptides (TRIB3-GST protein; SPR, series of α-helical peptides of AKT1 catalytic domain): displayed the best binding affinity with TRIB3 among all the α-helical peptides analyzed

Molecule: insulin: insulin activation of the PI3K-AKT signaling pathway
- FOXO1 half-life (FOXO1): approximately 6 hr

B1: Tribbles homolog 3 (TRIB3), endogenous in human breast cancer cells (natural protein, UniProt Q96RU7 1-358, looked up)
chain: MRATPLAAPAGSLSRKKRLELDDNLDTERPVQKRARSGPQPRLPPCLLPLSPPTAPDRATAVATASRLGPYVLLEPEEGGRAYQALHCPTGTEYTCKVYPVQEALAVLEPYARLPPHKHVARPTEVLAGTQLLYAFFTRTHGDMHSLVRSRHRIPEPEAAVLFRQMATALAHCHQHGLVLRDLKLCRFVFADRERKKLVLENLEDSCVLTGPDDSLWDKHACPAYVGPEILSSRASYSGKAADVWSLGVALFTMLAGHYPFQDSEPVLLFGKIRRGAYALPAGLSAPARCLVRCLLRREPAERLTATGILLHPWLRQDPMPLAPTRSHLWEAAQVVPDGLGLDEAREEEGDREVVLYG
- half-life of FOXO1 degradation in MCF7 cells treated with Pep2–Ae (Supplementary Fig. 10d) [3]: 36 min

B2: TRIB3-GST protein: TRIB3-GST protein (Sino, China) (protein)
chain: MRATPLAAPAGSLSRKKRLELDDNLDTERPVQKRARSGPQPRLPPCLLPLSPPTAPDRATAVATASRLGPYVLLEPEEGGRAYQALHCPTGTEYTCKVYPVQEALAVLEPYARLPPHKHVARPTEVLAGTQLLYAFFTRTHGDMHSLVRSRHRIPEPEAAVLFRQMATALAHCHQHGLVLRDLKLCRFVFADRERKKLVLENLEDSCVLTGPDDSLWDKHACPAYVGPEILSSRASYSGKAADVWSLGVALFTMLAGHYPFQDSEPVLLFGKIRRGAYALPAGLSAPARCLVRCLLRREPAERLTATGILLHPWLRQDPMPLAPTRSHLWEAAQVVPDGLGLDEAREEEGDREVVLYG
modifications: left off: GST, end not stated, kept
- AKT1-FOXO1 interaction (AKT1-FOXO1 interaction): inhibited the AKT1-FOXO1 interaction by binding to AKT1
